Experimental data: PubChem BioAssay AID248 (DTP/NCI, 2004)
Several values for one entry are separate records, joined by “and”; a condition that tells them apart may be missing. Equal entries are not always repeated. Inconclusive results and toxic doses are left out. Rule as the data show it: active = T/C of 150% or more; inactive = T/C below 125%.

Test system: L1210 leukemia ip in BDF1 mice, survival T/C
Assay: NCI In Vivo Anticancer Drug Screen. Data for tumor model L1210 Leukemia (intraperitoneal) in B6D2F1 (BDF1) mice
Conditions: endpoint: mean survival time, higher = longer survival
Outline: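 Transplanted-tumor mice were given test agent; controls received vehicle only. Survival readings from the two groups were divided (treated over control).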

[1] = dose: 100.0 mg/kg/injection, schedule: Q01DX001 (ip), vehicle: Klucel (hydroxypropylcellulose) (HPC)
[2] = dose: 100.0 mg/kg/injection, schedule: Q01DX001 (ip), vehicle: saline
[3] = dose: 200.0 mg/kg/injection, schedule: Q01DX001 (ip), vehicle: Klucel (hydroxypropylcellulose) (HPC)
[4] = dose: 200.0 mg/kg/injection, schedule: Q01DX001 (ip), vehicle: saline
[5] = dose: 400.0 mg/kg/injection, schedule: Q01DX001 (ip), vehicle: Klucel (hydroxypropylcellulose) (HPC)
[6] = dose: 400.0 mg/kg/injection, schedule: Q01DX001 (ip), vehicle: saline
[7] = dose: 100.0 mg/kg/injection, schedule: Q01DX009 (ip), vehicle: Klucel (hydroxypropylcellulose) (HPC)
[8] = dose: 100.0 mg/kg/injection, schedule: Q04DX003 (ip), vehicle: Klucel (hydroxypropylcellulose) (HPC)
[9] = dose: 200.0 mg/kg/injection, schedule: Q01DX009 (ip), vehicle: Klucel (hydroxypropylcellulose) (HPC)
[10] = dose: 200.0 mg/kg/injection, schedule: Q04DX003 (ip), vehicle: Klucel (hydroxypropylcellulose) (HPC)
[11] = dose: 400.0 mg/kg/injection, schedule: Q01DX009 (ip), vehicle: Klucel (hydroxypropylcellulose) (HPC)
[12] = dose: 400.0 mg/kg/injection, schedule: Q04DX003 (ip), vehicle: Klucel (hydroxypropylcellulose) (HPC)

Measured: T/C

Oc1cccc(N=Cc2ccccc2O)c1
inactive: [1] 102 % of control | [2] 97 % of control | [3] 96 % of control | [4] 100 % of control | [5] 101 % of control | [6] 105 % of control

CC(C)(C)CC(C)(C)NCC#N
inactive: dose: 6.25 mg/kg/injection, schedule: Q04DX003 (ip), vehicle: Klucel (hydroxypropylcellulose) (HPC) 92 % of control | dose: 12.5 mg/kg/injection, schedule: Q04DX003 (ip), vehicle: Klucel (hydroxypropylcellulose) (HPC) 95 % of control | dose: 25.0 mg/kg/injection, schedule: Q04DX003 (ip), vehicle: Klucel (hydroxypropylcellulose) (HPC) 92 % of control and 96 % of control

ICC12CC=CCC1(CI)CCCC2 (centres undefined)
inactive: dose: 150.0 mg/kg/injection, schedule: Q04DX002 (ip), vehicle: Klucel (hydroxypropylcellulose) (HPC) 105 % of control | dose: 300.0 mg/kg/injection, schedule: Q04DX002 (ip), vehicle: Klucel (hydroxypropylcellulose) (HPC) 97 % of control

Cc1ccc(NC(Nc2ccc(C)c(Cl)c2)C(Cl)(Cl)Cl)cc1Cl
inactive: [7] 96 % of control | [8] 92 % of control | [9] 92 % of control | [10] 118 % of control | [11] 89 % of control | [12] 103 % of control

CCOC(=O)Nc1cc(N(C)CC(O)CN(C)c2ccccc2)c(N)c(N)n1 (centres undefined)
inactive: [1] 106 % of control | [3] 107 % of control | [5] 105 % of control

N#CC(C#N)=Cc1ccc(Cl)c(Cl)c1
inactive: dose: 50.0 mg/kg/injection, schedule: Q01DX001 (ip), vehicle: other 102 % of control | dose: 100.0 mg/kg/injection, schedule: Q01DX001 (ip), vehicle: other 107 % of control | [7] 92 % of control | [8] 96 % of control | dose: 200.0 mg/kg/injection, schedule: Q01DX001 (ip), vehicle: other 107 % of control | [9] 93 % of control | [10] 102 % of control | [11] 86 % of control | [12] 95 % of control

COc1cccc(NC(=S)N(CCC#N)C2CCCCC2)c1
inactive: dose: 100.0 mg/kg/injection, schedule: Q04DX002 (ip), vehicle: saline with Tween-80 102 % of control | dose: 200.0 mg/kg/injection, schedule: Q04DX002 (ip), vehicle: saline with Tween-80 97 % of control | dose: 400.0 mg/kg/injection, schedule: Q04DX002 (ip), vehicle: saline with Tween-80 97 % of control

COC(=O)C1(C)CCCC2(C)C3CCC4(C)CC3(CCC12)CC4S(=O)(=O)c1ccc(C)cc1 (centres undefined)
inactive: dose: 12.5 mg/kg/injection, schedule: Q04DX002 (ip), vehicle: Klucel (hydroxypropylcellulose) (HPC) 100 % of control | dose: 25.0 mg/kg/injection, schedule: Q04DX002 (ip), vehicle: Klucel (hydroxypropylcellulose) (HPC) 89 % of control | dose: 50.0 mg/kg/injection, schedule: Q04DX002 (ip), vehicle: Klucel (hydroxypropylcellulose) (HPC) 95 % of control and 106 % of control | dose: 200.0 mg/kg/injection, schedule: Q04DX002 (ip), vehicle: Klucel (hydroxypropylcellulose) (HPC) 86 % of control

CCN1C(=O)CN(CCN2CC(=O)N(c3ccccc3)C2=S)C1=S
inactive: dose: 50.0 mg/kg/injection, schedule: Q01DX009 (ip), vehicle: saline with Tween-80 94 % of control | dose: 100.0 mg/kg/injection, schedule: Q01DX009 (ip), vehicle: saline with Tween-80 102 % of control | dose: 200.0 mg/kg/injection, schedule: Q01DX009 (ip), vehicle: saline with Tween-80 90 % of control

CCN(CC)CCCC(C)Nc1nccc(/C=C/c2ccc(Cl)cc2)n1 (centres undefined)
inactive: [2] 96 % of control | [8] 90 % of control | [4] 105 % of control | [6] 100 % of control | [12] 94 % of control
